Measured values: patent US10617677B2, “Nuclear transport modulators and uses thereof” (Biogen MA Inc., priority 2012, dated 2020)
Entries after “also recorded” stand apart in the source; their conditions may differ.

Tests used:
[1] = tested on: Z-138 xenograft tumors; experiment: Z-138 lymphoma xenograft in SCID mice; format: in vivo
Experimental: Z-138 (ATCC # CRL-3001) mantle cell lymphoma cells were obtained from ATCC. These cells were grown in IMEM medium supplemented with 10% horse serum, 1% penicillin and streptomycin, and 2 mM L-glutamine. […] Twenty-four (24) female CB-17 SCID mice (Charles River Labs strain code 236), aged 5 to 6 weeks were used. The SCID mice were inoculated in the left flank with Z-138 cells in a volume of 0.2 mL, equivalent to 4×10^7 cells per mouse. […] Mice were allocated to […] prior to the initiation of treatment based on tumor volume such that mean tumor volume in each group was within the range of 77 to 92 mm^3. […] Animals were fed with Labdiet® 5001 rodent chow and sterile water ad libitum. […] Animals with weight loss of more than 20% of their starting weight were euthanized. Mice with weight loss of more than 15% of their starting weight were not treated again until weight loss recovered to less than 5% of their starting weight. Any animals with a tumor volume of more than 1500 mm^3 were euthanized. Dosing solutions were prepared fresh on each day of dosing. […] This was prepared by dissolving the lyophilized powder in sterile water.

[2] = tested on: IMQ-induced psoriasis; experiment: Imiquimod (IMQ)-induced dermal inflammation/psoriasis model, Study 2; format: in vivo, mice; details: for Rate of reduction of DAI, % change from 1st dose administration: Compound 2 2.5 mg/kg, cyclophosphamide 10 mg/kg
Experimental: Forty (40) male BALB/c mice (Biological E Limited, Hyderabad (CPCSEA registration number: 36/99/CPCSEA)) were divided into four (4) groups consisting of ten (10) mice each. Animals were randomized based on their body weight. The groups were designated as Group-I (Naïve), Group-II (IMQ; vehicle (PEG 400 and HPBCD)), Group-III (IMQ; Compound 2 (2.5 mg/kg)) and […] (IMQ; cyclophosphamide (10 mg/kg)).
A small area on the dorsum of each mouse was shaved, ensuring that these areas were of equal size/area. Psoriasis was induced in Groups II to IV by topical application of 50 mg of IMQ cream daily from Day 1 to Day 6 on the dorsum of the animals. On Day 1 and Day 2 of the study, four hours after topical application of IMQ, Compound 2 or positive control (cyclophosphamide) or vehicle were administered to animals in pertinent groups. Of note, animals in Group II and Group III were subjected to subcutaneous injections, whereas animals in Group IV received oral administration. The Compound 2, vehicle and cyclophosphamide treatment was terminated on Day 2. These groups of animals were maintained on daily IMQ treatments until Day 6. On Day 7, the psoriasis-induced animals were re-randomized into 3 groups consisting of 10 animals each based on Cumulative Disease Activity Index (CDAI). From Day 7 to Day 9, animals received vehicle or positive control or Compound 2. Of note, on these days animals were not treated with IMQ. From Day 10 to Day 14, the animals were treated alternatively with IMQ (Days 10, 12 and 14), or vehicle, positive control or Compound 2 (Days 11, 13).
All animals were observed daily for a period of 16 days for gross observations, body weight and feed and water intake. On Days 1 and 2, scorings of erythema, scaling, folding and thickening of skin were recorded 2 hours after administration of vehicle/positive control/test compounds, and on Days 3 to 14 scorings were recorded 4 hours after IMQ application, or administration of positive control, vehicle or Compound 2.
Vehicle was prepared by dissolving 40 mg of HPBCD in 70.0 mL of distilled water. Compound 2 was prepared by dissolving 3.59 mg in 0.5% PVP and 0.5% Pluronic. Cyclophosphamide was prepared by dissolving 500 mg of CMC in 100 mL distilled water.
The experimental results shown in Table 10 are expressed as mean±SEM. Data was assessed using one-way ANOVA, and post hoc analysis was performed using Dunnett's test.

weight loss ([1]; 15 mg/kg PO MWF): Some weight loss was observed
SMILES: O=C(/C=C\n1cnc(-c2cc(C(F)(F)F)cc(C(F)(F)F)c2)n1)NNC(=O)CN1CCOCC1 [Compound 2, (Z)-3-(3-(3,5-bis(trifluoromethyl)phenyl)-1H-1,2,4-triazol-1-yl)-N′-(2-morpholinoacetyl)acrylohydrazide]
tumor growth relative to vehicle (area under the growth curves, ANOVA) ([1]; Compound 2 15 or 7.5 mg/kg PO MWF, cyclophosphamide 80 mg/kg IP): antitumor effect at both 7.5 mg/kg and 15 mg/kg doses in a dose dependent manner
body weight, food consumption and water intake ([2]; 2.5 mg/kg subcutaneous): without greatly impacting the consumption of food or water
rate of reduction of disease activity index versus vehicle ([2]; 2.5 mg/kg subcutaneous): significantly greater than that observed in animals treated with vehicle; also recorded: diminished IMQ-induced disease manifestation
Rate of reduction of DAI, % change from 1st dose administration ([2]; Day 7, 4 hr. post-IMQ/drug administration readings): −30.9%
Rate of reduction of DAI, % change from 1st dose administration ([2]; Day 7, pre-IMQ/drug administration readings): 0.0%
Rate of reduction of DAI, % change from 1st dose administration ([2]; Day 8, 4 hr. post-IMQ/drug administration readings): −35.3%
Rate of reduction of DAI, % change from 1st dose administration ([2]; Day 8, pre-IMQ/drug administration readings): −33.8%
Rate of reduction of DAI, % change from 1st dose administration ([2]; Day 9, 4 hr. post-IMQ/drug administration readings): −63.2%
Rate of reduction of DAI, % change from 1st dose administration ([2]; Day 9, pre-IMQ/drug administration readings): −58.8%
Rate of reduction of DAI, % change from 1st dose administration ([2]; Day 10, 4 hr. post-IMQ/drug administration readings): −88.2%
Rate of reduction of DAI, % change from 1st dose administration ([2]; Day 10, pre-IMQ/drug administration readings): −88.2%
Rate of reduction of DAI, % change from 1st dose administration ([2]; Day 11, 4 hr. post-IMQ/drug administration readings): −70.6%
Rate of reduction of DAI, % change from 1st dose administration ([2]; Day 11, pre-IMQ/drug administration readings): −73.5%
Rate of reduction of DAI, % change from 1st dose administration ([2]; Day 12, 4 hr. post-IMQ/drug administration readings): −73.5%
Rate of reduction of DAI, % change from 1st dose administration ([2]; Day 12, pre-IMQ/drug administration readings): −80.9%
Rate of reduction of DAI, % change from 1st dose administration ([2]; Day 13, 4 hr. post-IMQ/drug administration readings): −60.3%
Rate of reduction of DAI, % change from 1st dose administration ([2]; Day 13, pre-IMQ/drug administration readings): −61.8%
Rate of reduction of DAI, % change from 1st dose administration ([2]; Day 14, 4 hr. post-IMQ/drug administration readings): −63.2%
Rate of reduction of DAI, % change from 1st dose administration ([2]; Day 14, pre-IMQ/drug administration readings): −66.2%
Rate of reduction of DAI, % change from 1st dose administration ([2]; Day 15, pre-IMQ/drug administration readings): −64.7%
